Tests used:
[1] = Downregulation of PSA mRNA expression in human LNCaP cells measured after 12 hrs by RT-PCR assay; type: functional, cell-based
[2] = molecular target: 11-beta-hydroxysteroid dehydrogenase 1 (Homo sapiens, UniProt P28845); test: Inhibition of human 11beta-HSD1 expressed in HEK-293 cells incubated for 10 mins; type: cell-based, HEK293
[3] = Dissociation constant, pKa of compound; type: physicochemical

Chain of 11-beta-hydroxysteroid dehydrogenase 1 (P28845 whole entry): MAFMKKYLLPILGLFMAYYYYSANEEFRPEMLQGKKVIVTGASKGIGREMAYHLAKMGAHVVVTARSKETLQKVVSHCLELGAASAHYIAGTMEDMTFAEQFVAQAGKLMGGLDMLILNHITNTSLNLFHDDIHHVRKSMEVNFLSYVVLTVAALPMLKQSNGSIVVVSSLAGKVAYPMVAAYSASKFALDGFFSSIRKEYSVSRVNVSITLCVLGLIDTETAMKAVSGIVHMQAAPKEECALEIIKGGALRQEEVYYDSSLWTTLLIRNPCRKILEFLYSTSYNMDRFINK

Row | Compound | IC50 [1] | IC50 [2] | pKa [3]
1 | O=c1c(-c2ccc(O)cc2O)coc2cc(O[C@@H]3O[C@H](CO)[C@@H](O)[C@H](O)[C@H]3O)cc(O)c12 | 18 µM | – | –
2 | O=C1CC(c2ccccc2O)Oc2ccccc21 (stereo not drawn) [2'-HYDROXY-FLAVANONE] | – | 10 µM | 6.67
